Among the data in US5061794A, “Cephalosporin derivatives, and antibacterial agents” (priority 1986, dated 1991) are MIC values, retold here.

Values after ≈ are worked out from the molar mass of the structure shown. Like-named read-outs stand apart in the source and are kept apart here.

The test system of assay [1] is M. morganii GN5407. The assay can be described thus: in vitro antibacterial activity, agar plate dilution method (MIC). It counts as cell-based. As to conditions: Morganella morganii, 10^6 CFU/ml. How it is done:
(§1) The in vitro antibacterial activities of the compounds of the present invention against various microorganisms, were measured by the following agar plate dilution method. One platinum loopfull of each test microorganism incubated overnight in Mueller Hinton broth, was inoculated to Mueller Hinton agar (inoculum size: 10^6 CFU/ml). Such culture media containing various antibiotics in various concentrations were prepared. After incubation at 37° C. for 16 hours, the minimum inhibitory concentrations (MIC: μg/ml) were measured.

For assay [2], the system named is S. aureus 209P NIHJ-JC1. The assay is described as above. It counts as cell-based. As to conditions: Staphylococcus aureus, 16 h, 10^6 CFU/ml, 37° C., 16 hours. How it is done:
as §1

The subject of assay [3] is E. cloacae 963. The description is as above. It counts as cell-based. As to conditions: 10^6 CFU/ml. As to the method: as §1
The test system of assay [4] is S. marcescens No. 16-2. The assay is described as above. It counts as cell-based. Particulars: Serratia marcescens, NO.162, 16 h. How it is done:
as §1

Assay [5] relates to E. cloacae Nek 39. The description is as above. As to conditions: Enterobacter cloacae, NEK39, 16 h, 10^6 CFU/ml. It counts as cell-based. How it is done: as §1
Assay [6] concerns K. pneumoniae PCI-602. Described as above. It counts as cell-based. As to conditions: Klebsiella pneumoniae, PCI602, 16 h, 10^6 CFU/ml. How it is done:
as §1

Assay [7] relates to P. vulgaris HX-19. The description is as above. It counts as cell-based. Particulars: Proteus vulgaris, HX19, 16 h, P. vulgaris HX-19; 10^6 CFU/ml; read-out: Minimum Inhibitory Concentration (MIC). As to the method:
as §1

Assay [8] relates to S. marcescens IAM 1184. Described as above. It counts as cell-based. As to conditions: Serratia marcescens, IAM1184, 16 h, read-out: Minimum Inhibitory Concentration (MIC). How it is done: as §1
Assay [9] relates to Ps. aeruginosa AK 109. The assay is described as above. It counts as cell-based, Pseudomonas aeruginosa. As to conditions: Pseudomonas aeruginosa, AK109, 16 h, read-out: Minimum Inhibitory Concentration (MIC). How it is done: as §1
Assay [10] concerns Ps. aeruginosa IF03445. The assay is described as above. Particulars: Pseudomonas aeruginosa, 16 h; Ps. aeruginosa IF03445; 10^6 CFU/ml; read-out: Minimum Inhibitory Concentration (MIC). It counts as cell-based, Pseudomonas aeruginosa. As to the method: as §1
The subject of assay [11] is Ps. cepacia 23. Described as above. It counts as cell-based, Pseudomonas cepacia. Particulars: Burkholderia cepacia, 16 h; Ps. cepacia 23; 10^6 CFU/ml; read-out: Minimum Inhibitory Concentration (MIC). How it is done: as §1
Assay [12] has as its system E. coli CSH2 (RK1). As to the kind of experiment: microbe, parasite or virus in culture. It counts as cell-based. As to conditions: Escherichia coli, 16 h, read-out: Minimum Inhibitory Concentration (MIC), *E. coli CSH2 (RK1), lactamase-producing strain; 10^6 CFU/ml. As to the method:
as §1

For assay [13], the system named is A. calcoaceticus No. 4. The assay can be described thus: in vitro antibacterial activity, agar plate dilution method (MIC). It counts as cell-based, Acinetobacter calcoaceticus. Particulars: Acinetobacter calcoaceticus, NO.4, 16 h, 10^6 CFU/ml. How it is done:
as §1

The test system of assay [14] is E. coli GN5482. The assay is described as above. It counts as cell-based. Particulars: Escherichia coli. How it is done: as §1
Assay [15] relates to K. oxytoca GN10650. Described as above. As to conditions: Klebsiella oxytoca, 10^6 CFU/ml. It counts as cell-based. As to the method:
as §1

Assay [16] deals with E. coli NIHJ JC2. The assay is described as above. Particulars: Escherichia coli. It counts as cell-based. How it is done:
as §1

In assay [17] the test system is K. pneumoniae No. 42. The description is as above. It counts as cell-based. As to conditions: Klebsiella pneumoniae, 10^6 CFU/ml. How it is done: as §1
Assay [18] concerns P. vulgaris No. 33. The description is as above. It counts as cell-based. As to conditions: Proteus vulgaris, NO.33, 16 h, read-out: Minimum Inhibitory Concentration (MIC), *P. vulgaris No. 33, lactamase-producing strain; 10^6 CFU/ml. As to the method:
as §1

Assay [19] relates to Ps. aeruginosa AKR17. Described as above. It counts as cell-based, Pseudomonas aeruginosa. As to conditions: Pseudomonas aeruginosa, 16 h; Ps. aeruginosa AKR17; 10^6 CFU/ml; read-out: Minimum Inhibitory Concentration (MIC). How it is done:
as §1

Assay [20] has as its system E. coli CSH(RE45). The assay can be described thus: microbe, parasite or virus in culture. It counts as cell-based. As to conditions: Escherichia coli, 16 h, read-out: Minimum Inhibitory Concentration (MIC), *E. coli CSH(RE45), lactamase-producing strain; 10^6 CFU/ml. How it is done:
as §1

Setting [21] is: S. aureus 209P NIHJ-JC1, read-out: Minimum Inhibitory Concentration (MIC).
Where [22] appears, read: Enterobacter cloacae, 16 h, E. cloacae 963, read-out: Minimum Inhibitory Concentration (MIC).
[23] abbreviates: *S. marcescens No. 16-2, lactamase-producing strain, 10^6 CFU/ml, read-out: Minimum Inhibitory Concentration (MIC).
Setting [24] is: *E. cloacae Nek 39, lactamase-producing strain, read-out: Minimum Inhibitory Concentration (MIC).
Where [25] appears, read: Ps. aeruginosa AK 109, 10^6 CFU/ml.
The mark [26] stands for this setting: A. calcoaceticus No. 4, read-out: Minimum Inhibitory Concentration (MIC).
Where [27] appears, read: GN5407, 16 h, read-out: Minimum Inhibitory Concentration (MIC), *M. morganii GN5407, lactamase-producing strain.
Setting [28] is: Enterobacter cloacae, 963, 16 h, read-out: Minimum Inhibitory Concentration (MIC), E. cloacae 963.
Where [29] appears, read: read-out: Minimum Inhibitory Concentration (MIC), K. pneumoniae PCI-602.
Setting [30] is: NIHJJC2, 16 h, read-out: Minimum Inhibitory Concentration (MIC), E. coli NIHJ JC2, 10^6 CFU/ml, 37° C.
Where [31] appears, read: NO.42, 16 h, read-out: Minimum Inhibitory Concentration (MIC), *K. pneumoniae No. 42, lactamase-producing strain.
[32] abbreviates: read-out: Minimum Inhibitory Concentration (MIC), *E. cloacae Nek 39, lactamase-producing strain.
Where [33] appears, read: 16 h, *K. oxytoca GN10650, lactamase-producing strain, read-out: Minimum Inhibitory Concentration (MIC).

As for `CO/N=C(\C(=O)N[C@@H]1C(=O)N2C(C(=O)O)=C(COC(C)=O)CS[C@H]12)c1csc(N)n1` [cefotaxime, reference compound], the MIC is 0.05 µg/mL (≈ 0.11 µM) in assay [1] (16 h, *M. morganii GN5407, lactamase-producing strain, read-out: Minimum Inhibitory Concentration (MIC)); 1.56 µg/mL (≈ 3.43 µM) in [2] (setting [21]); 0.05 µg/mL (≈ 0.11 µM) in [3] (setting [22]); 6.25 µg/mL (≈ 13.7 µM) in [4] (setting [23]); 1.56 µg/mL (≈ 3.43 µM) in assay [5] (setting [24]); less than 0.006 µg/mL in assay [6] (K. pneumoniae PCI-602, read-out: Minimum Inhibitory Concentration (MIC)). For the same molecule, the MIC in [7] was less than 0.006 µg/mL; in [8], 0.0125 µg/mL (≈ 0.0274 µM); in assay [9] (setting [25]), 12.5 µg/mL (≈ 27.4 µM); in assay [10], 2.5 µg/mL (≈ 5.49 µM); in assay [11], 6.25 µg/mL (≈ 13.7 µM); in assay [12], 0.0125 µg/mL (≈ 0.0274 µM).

Consider `CC(C)(O/N=C(\C(=O)N[C@@H]1C(=O)N2C(C(=O)O)=C(CSc3nnc(-c4ccccc4)o3)CS[C@H]12)c1csc(N)n1)C(=O)O` [compound 3, disodium 7β-[2-(2-aminothiazol-4-yl)-2-(1-carboxylate-1-methylethoxyimino)acetamido]3-(5-phenyl-1,3,4-oxadiazol-2-yl) thiomethyl-3-cephem-4-carboxylate, reference compound], for which the MIC is 100 µg/mL in assay [13] (setting [26]); 1.56 µg/mL in [1] (setting [27]); 3.12 µg/mL in assay [14] (GN5482, 16 h, read-out: Minimum Inhibitory Concentration (MIC)); 6.25 µg/mL in assay [2] (read-out: Minimum Inhibitory Concentration (MIC), S. aureus 209P NIHJ-JC1); 6.25 µg/mL in assay [3] (setting [28]); 25 µg/mL in assay [4] (setting [23]). In addition, the MIC was 25 µg/mL in assay [5] (setting [24]); 0.1 µg/mL in [6] (setting [29]); less than 0.006 µg/mL in assay [7]; 1.56 µg/mL in [8]; 3.12 µg/mL in assay [15] (GN10650, 16 h, read-out: Minimum Inhibitory Concentration (MIC), *K. oxytoca GN10650, lactamase-producing strain); 3.12 µg/mL in assay [16] (setting [30]). The MIC is 3.12 µg/mL in assay [17] (setting [31]); 0.39 µg/mL in assay [18]; 50 µg/mL in [9] (setting [25]); 50 µg/mL in assay [10]; more than 100 µg/mL in [19]; 1.56 µg/mL in assay [20]. Moreover, the MIC in assay [12] was determined as 1.56 µg/mL.

In the case of `CC(C)(O/N=C(\C(=O)N[C@@H]1C(=O)N2C(C(=O)O)=C(CSc3nnc(-c4ccc(O)cc4)o3)CS[C@H]12)c1csc(N)n1)C(=O)O` [compound 4, disodium 7β-[2-(2-aminothiazol-4-yl)-2-(1-carboxylate-1-methylethoxyimino)acetamido]-3-[5-(4-hydroxyphenyl)-1,3,4-oxadiazol-2-yl]thiomethyl-3-cephem-4-carboxylate, reference compound], the MIC in assay [13] (setting [26]) was 25 µg/mL; in [1] (setting [27]), 0.78 µg/mL; in [14] (16 h, *E. coli GN5482, lactamase-producing strain, 10^6 CFU/ml, read-out: Minimum Inhibitory Concentration (MIC)), 1.56 µg/mL; in assay [2] (setting [21]), 6.25 µg/mL; in assay [3] (setting [22]), 3.12 µg/mL; in [4] (read-out: Minimum Inhibitory Concentration (MIC)), 12.5 µg/mL. For the same molecule, the MIC in assay [5] (setting [32]) came to 12.5 µg/mL; in assay [6] (setting [29]), 0.1 µg/mL; in [7], 0.1 µg/mL; in [8], 0.78 µg/mL; in assay [15] (setting [33]), 1.56 µg/mL; in assay [16] (NIHJJC2, E. coli NIHJ JC2, 10^6 CFU/ml, 37° C., 16 hours, read-out: Minimum Inhibitory Concentration (MIC)), 3.12 µg/mL. The MIC in assay [17] (16 h, *K. pneumoniae No. 42, lactamase-producing strain, read-out: Minimum Inhibitory Concentration (MIC)) was 1.56 µg/mL; in assay [18] it was 0.2 µg/mL; in assay [9] it was 12.5 µg/mL; in [10], 25 µg/mL; in assay [19], more than 100 µg/mL; in assay [20], 0.78 µg/mL. In addition, the MIC in [12] is 0.78 µg/mL.

Take `CON=C(C(=O)NC1C(=O)N2C(C(=O)O)=C(CSc3nc(-c4ccc(OC(C)=O)c(OC(C)=O)c4)cs3)CSC12)c1csc(N)n1` (stereo not drawn) [compound 40, sodium 3-[4-(3,4-diacetoxyphenyl)-thiazol-2-yl]thiomethyl-7β-[2-(2-aminothiazol-4-yl)-2-methoxviminoacetamido]-3-cephem-4-carboxvlate]: the MIC in [13] (read-out: Minimum Inhibitory Concentration (MIC), A. calcoaceticus No. 4) was 0.78 µg/mL; in [1] (setting [27]), 0.1 µg/mL; in [14] (GN5482, 16 h, read-out: Minimum Inhibitory Concentration (MIC), *E. coli GN5482, lactamase-producing strain, 10^6 CFU/ml) it was 0.78 µg/mL; in assay [2] (setting [21]) it was 1.56 µg/mL; in assay [3] (setting [28]) it was 0.05 µg/mL; in assay [4] (read-out: Minimum Inhibitory Concentration (MIC), *S. marcescens No. 16-2, lactamase-producing strain, 10^6 CFU/ml) it was 6.25 µg/mL. Moreover, the MIC was 0.39 µg/mL in assay [5] (setting [32]); less than 0.006 µg/mL in assay [6] (setting [29]); 0.0125 µg/mL in assay [7]; 0.1 µg/mL in [8] (S. marcescens IAM 1184, 10^6 CFU/ml); 1.56 µg/mL in assay [15] (setting [33]); 0.2 µg/mL in [16] (setting [30]). The MIC in assay [17] (setting [31]) was 0.2 µg/mL; in [18] it was 0.1 µg/mL; in assay [9], 3.12 µg/mL; in [10] it was 1.56 µg/mL; in assay [19], less than 100 µg/mL; in assay [20] it was 0.2 µg/mL. Moreover, the MIC in assay [12] was 0.025 µg/mL.
